Values after ≈ are worked out from the molar mass of the structure shown.
Tests used:
[1] = tested on: Mycobacterium tuberculosis; assay: Antimicrobial activity against Mycobacterium tuberculosis H37Rv by Alamar blue assay; assay type: functional
Vero = assay: Cytotoxicity against monkey Vero cells assessed as decrease in cell viability after 72 hrs by MTT assay; assay type: cell-based; conditions: Chlorocebus sabaeus
Acetylcholinesterase = Acetylcholinesterase (Homo sapiens, UniProt P22303); assay: Inhibition of AChE (unknown origin) using […] as substrate preincubated for 15 mins followed by substrate addition measured every minute by spectrophotometric analysis
Chain of Acetylcholinesterase (P22303 whole entry): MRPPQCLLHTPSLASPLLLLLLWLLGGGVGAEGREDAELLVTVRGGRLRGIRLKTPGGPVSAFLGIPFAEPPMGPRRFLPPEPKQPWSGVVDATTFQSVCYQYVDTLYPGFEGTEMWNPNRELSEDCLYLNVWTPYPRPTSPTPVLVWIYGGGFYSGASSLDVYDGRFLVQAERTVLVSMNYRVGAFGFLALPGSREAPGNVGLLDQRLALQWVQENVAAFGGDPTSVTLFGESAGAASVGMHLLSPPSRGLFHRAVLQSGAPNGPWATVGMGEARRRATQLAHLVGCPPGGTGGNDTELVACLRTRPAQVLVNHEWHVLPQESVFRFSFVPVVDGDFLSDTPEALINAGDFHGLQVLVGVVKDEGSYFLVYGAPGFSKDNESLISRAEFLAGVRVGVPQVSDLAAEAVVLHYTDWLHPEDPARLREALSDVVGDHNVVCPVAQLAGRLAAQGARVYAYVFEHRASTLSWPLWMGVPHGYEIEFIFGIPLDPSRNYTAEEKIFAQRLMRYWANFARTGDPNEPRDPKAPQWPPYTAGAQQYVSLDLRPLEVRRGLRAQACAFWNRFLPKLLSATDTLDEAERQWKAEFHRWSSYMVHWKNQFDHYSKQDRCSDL

[2] = tested on: Mycobacterium tuberculosis; assay: Potency index, ratio of cycloserine IC50 to test compound IC50 for Mycobacterium tuberculosis H37Rv; assay type: functional
[3] = tested on: Mycobacterium tuberculosis; assay: Potency index, ratio of pyrimethamine IC50 to test compound IC50 for Mycobacterium tuberculosis H37Rv; assay type: functional

SMILES	IC50 [1]	IC90 [1]	MIC [1]	IC50 (Vero)	IC50 (Acetylcholinesterase)	Ratio IC50 [2]	Ratio IC50 [3]
CN1CC2C(=O)N(Cc3ccccc3)C(=O)C2C12C(=O)c1ccccc1C2=O (stereo not given)	55 µM	96.4 µM	100 µM (≈ 37.4 µg/mL)	> 6.25 µg/mL	41.2 µM	–	–
COc1ccccc1N1C(=O)C2CN(C)C3(C(=O)c4ccccc4C3=O)C2C1=O (stereo not given)	28.3 µM	46.5 µM	50 µM (≈ 19.5 µg/mL)	> 6.25 µg/mL	11.1 µM	–	–
CCc1ccc(N2C(=O)C3CN(C)C4(C(=O)c5ccccc5C4=O)C3C2=O)cc1 (stereo not given)	21.9 µM	47.9 µM	50 µM (≈ 19.4 µg/mL)	> 6.25 µg/mL	44.6 µM	–	–
CN1CC2C(=O)N(c3ccc(F)cc3)C(=O)C2C12C(=O)c1ccccc1C2=O (stereo not given)	2.17 µM	7.86 µM	50 µM (≈ 18.9 µg/mL)	> 6.25 µg/mL	50.1 µM	–	–
COc1ccc(N2C(=O)C3CN(C)C4(C(=O)c5ccccc5C4=O)C3C2=O)cc1 (stereo not given)	17.2 µM	35.5 µM	50 µM (≈ 19.5 µg/mL)	> 6.25 µg/mL	0.78 µM	–	–
CN1CC2C(=O)N(c3ccccc3)C(=O)C2C12C(=O)c1ccccc1C2=O (stereo not given)	13.2 µM	25.9 µM	50 µM (≈ 18 µg/mL)	> 6.25 µg/mL	69.8 µM	–	–
CN1CC2C(=O)N(c3cccc(F)c3)C(=O)C2C12C(=O)c1ccccc1C2=O (stereo not given)	28.6 µM	47.7 µM	50 µM (≈ 18.9 µg/mL)	> 6.25 µg/mL	80.1 µM	–	–
CN1C(=O)C2CN(C)C3(C(=O)c4ccccc4C3=O)C2C1=O (stereo not given)	22.9 µM	34.6 µM	50 µM (≈ 14.9 µg/mL)	> 6.25 µg/mL	2.1 µM	–	–
CN1CC2C(=O)N(C3CCCCC3)C(=O)C2C12C(=O)c1ccccc1C2=O (stereo not given)	15.9 µM	34.6 µM	100 µM (≈ 36.6 µg/mL)	> 6.25 µg/mL	4.12 µM	–	–
Cc1ccc(N2C(=O)C3CN(C)C4(C(=O)c5ccccc5C4=O)C3C2=O)cc1 (stereo not given)	40 µM	71.9 µM	100 µM (≈ 37.4 µg/mL)	> 6.25 µg/mL	7.34 µM	–	–
CC(C)c1ccc(N2C(=O)C3CN(C)C4(C(=O)c5ccccc5C4=O)C3C2=O)cc1 (stereo not given)	28.5 µM	52.4 µM	100 µM (≈ 40.2 µg/mL)	> 6.25 µg/mL	12.2 µM	–	–
CN1CC2C(=O)N(c3ccc(Br)cc3)C(=O)C2C12C(=O)c1ccccc1C2=O (stereo not given)	11.1 µM	22 µM	50 µM (≈ 22 µg/mL)	> 6.25 µg/mL	73.3 µM	–	–
CN1CC2C(=O)N(c3ccc(Cl)cc3)C(=O)C2C12C(=O)c1ccccc1C2=O (stereo not given)	1.3 µM	5.3 µM	25 µM (≈ 9.87 µg/mL)	> 6.25 µg/mL	27.9 µM	12	37
CN1CC2C(=O)N(c3ccc([N+](=O)[O-])cc3)C(=O)C2C12C(=O)c1ccccc1C2=O (stereo not given)	47.2 µM	66.5 µM	100 µM (≈ 40.5 µg/mL)	> 6.25 µg/mL	6.6 µM	–	–
NCC[C@H](O)C(=O)N[C@@H]1C[C@H](N)[C@@H](O[C@H]2O[C@H](CN)[C@@H](O)[C@H](O)[C@H]2O)[C@H](O)[C@H]1O[C@H]1O[C@H](CO)[C@@H](O)[C@H](N)[C@H]1O [AMIKACIN]	–	0.08 µM	0.16 µM (≈ 0.0937 µg/mL)	> 6.25 µg/mL	–	–	–
N[C@@H]1CONC1=O [CYCLOSERINE]	–	–	25 µM (≈ 2.55 µg/mL)	> 6.25 µg/mL	–	–	–
CC[C@@H](CO)NCCN[C@@H](CC)CO [ETHAMBUTOL]	< 1.56 µM	–	12.5 µM (≈ 2.55 µg/mL)	> 6.25 µg/mL	–	–	–
NNC(=O)c1ccncc1 [ISONIAZID]	–	0.29 µM	0.31 µM (≈ 0.0425 µg/mL)	> 6.25 µg/mL	–	–	–
CCc1nc(N)nc(N)c1-c1ccc(Cl)cc1 [PYRIMETHAMINE]	–	–	100 µM (≈ 24.9 µg/mL)	> 6.25 µg/mL	–	–	–

Source: ChEMBL document CHEMBL4020795, “One-pot microwave assisted stereoselective synthesis of novel dihydro-2'H-spiro[indene-2,1'-pyrrolo-[3,4-c]pyrrole]-tetraones and evaluation of their antimycobacterial activity and inhibition of AChE” (Bioorg Med Chem Lett, 2017)
